One data set concerns Escherichia coli. Description: Antibacterial activity against Escherichia coli ATCC 11775 assessed as inhibition of bacterial growth incubated for 24 hrs by broth dilution method. The class given is functional.
Data set [1] deals with Staphylococcus aureus. The data set is described as follows: Antibacterial activity against methicillin-resistant Staphylococcus aureus ATCC 4330 assessed as inhibition of bacterial growth incubated for 24 hrs by broth dilution method. The class given is functional. (In broth dilution the organism is exposed to a series of concentrations in liquid medium.)
The test system of data set [2] is Staphylococcus aureus. Description: Selectivity index, ratio of MBC for bactericidal against methicillin-resistant Staphylococcus aureus ATCC 3392 to MIC for antibacterial activity against methicillin-resistant Staphylococcus aureus ATCC 3392. The class given is functional.
Data set [3] deals with Staphylococcus aureus. Description: Bactericidal activity against methicillin-resistant Staphylococcus aureus ATCC 3392 assessed as inhibition of bacterial growth incubated for 24 hrs by broth dilution method. It is filed as functional.
The subject of data set [4] is Staphylococcus aureus. Description: Selectivity index, ratio of MBC for bactericidal against methicillin-resistant Staphylococcus aureus ATCC 4330 to MIC for antibacterial activity against methicillin-resistant Staphylococcus aureus ATCC 4330. The class given is functional.
Data set [5] can be described thus: Cytotoxicity against mouse RAW264.7 cells assessed as survival rate incubated for 24 hrs by MTT assay. The class given is toxicity, cell-based. On the set-up: concentration or dose not given beside the values. The conditions noted are these: read-out: Survival.
Data set [6] relates to Staphylococcus aureus. Description: Antibacterial activity against Methicillin-resistant Staphylococcus aureus USA300 assessed as inhibition of bacterial growth incubated for 24 hrs by broth dilution method. It is filed as functional.
A short description of data set [7]: Cytotoxicity against human L02 cells assessed as survival rate incubated for 24 hrs by MTT assay. The conditions noted are these: read-out: Survival. Set-up: concentration or dose not given beside the values. It is filed as toxicity, cell-based. (In general: Tetrazolium dyes change colour on reduction, which living cells bring about.)
A further data set relates to Klebsiella pneumoniae. The data set is described as follows: Antibacterial activity against Klebsiella pneumoniae […] assessed as inhibition of bacterial growth incubated for 24 hrs by broth dilution method. The class given is functional.
In data set [8] the test system is Staphylococcus aureus. Description: Antibacterial activity against methicillin-resistant Staphylococcus aureus ATCC 3392 assessed as inhibition of bacterial growth incubated for 24 hrs by broth dilution method. The class given is functional.
In another data set the test system is Pseudomonas aeruginosa. Description: Antibacterial activity against Pseudomonas aeruginosa […] assessed as inhibition of bacterial growth incubated for 24 hrs by broth dilution method. It is filed as functional.
The subject of data set [9] is Staphylococcus aureus. The data set is described as follows: Bactericidal against methicillin-resistant Staphylococcus aureus ATCC 4330 assessed as inhibition of bacterial growth incubated for 24 hrs by broth dilution method. The class given is functional.
For data set [10], the system named is Staphylococcus aureus. Description: Antibacterial activity against Methicillin-resistant Staphylococcus aureus USA300 infected in mouse skin infection model assessed as reduction in number of bacteria at 10 mg/kg, sc administered every 12 hrs for 3 days. The class given is functional. To be noted: time 3.0 day.

The structures appear in SMILES notation. ≈ marks a conversion by molar mass, not a printed value. Calls of active or inactive are those of the source.

On to `CCCCC(=O)c1c(O)cc(O)c(C(=O)C(C)CC)c1O` (stereo not drawn), for which the MIC in the data set on Escherichia coli is above 64 µg/mL; in the data set with Staphylococcus aureus [1], 1 µg/mL (≈ 3.4 µM); in the data set with Staphylococcus aureus [6], 1 µg/mL (≈ 3.4 µM); with Klebsiella pneumoniae, above 64 µg/mL; in the data set on Staphylococcus aureus [8] it was 1 µg/mL (≈ 3.4 µM); in the data set with Pseudomonas aeruginosa it was above 64 µg/mL. Moreover, the “Selectivity Index” value in the data set with Staphylococcus aureus [2] amounted to 8; in the data set on Staphylococcus aureus [4] it was 4. For the same compound, the minimum bactericidal concentration (MBC) with Staphylococcus aureus [3] is 8 µg/mL (≈ 27.2 µM); in the data set with Staphylococcus aureus [9], 4 µg/mL (≈ 13.6 µM). In addition, the viability at 24 h in data set [5] stood at 76%; in data set [7] it was 75%.
With `Cc1onc(-c2ccccc2)c1C(=O)N[C@@H]1C(=O)N2[C@@H]1SC(C)(C)[C@@H]2C(=O)O` [OXACILLIN], in the data set with Staphylococcus aureus [6], the MIC was determined as 16 µg/mL (≈ 39.9 µM). Further, the result in the data set on Staphylococcus aureus [10] was inactive.
For `O=C(c1c(O)cc(O)c(C(=O)C2CCCC2)c1O)C1CCCC1`, the MIC with Escherichia coli was 64 µg/mL (≈ 201 µM); with Staphylococcus aureus [1], 1 µg/mL (≈ 3.14 µM); in the data set on Staphylococcus aureus [6] it was 0.5 µg/mL (≈ 1.57 µM); in the data set on Klebsiella pneumoniae, above 64 µg/mL; in the data set with Staphylococcus aureus [8] it was 1 µg/mL (≈ 3.14 µM); with Pseudomonas aeruginosa, above 64 µg/mL. For the same compound, the “Selectivity Index” value in the data set on Staphylococcus aureus [2] and in the data set with Staphylococcus aureus [4] was 4 in each case. The minimal bactericidal concentration (MBC) in the data set on Staphylococcus aureus [3] and in the data set with Staphylococcus aureus [9] was 4 µg/mL (≈ 12.6 µM) throughout. The viability at 24 h in [5] is 76%; in data set [7] it was 75%.
Take `CCCCC(=O)c1c(O)cc(O)c(C(=O)C(C)C)c1O`: the minimum inhibitory concentration (MIC) was above 64 µg/mL in the data set on Escherichia coli; 2 µg/mL (≈ 7.13 µM) in the data set with Staphylococcus aureus [1]; 1 µg/mL (≈ 3.57 µM) in the data set with Staphylococcus aureus [6]; above 64 µg/mL in the data set on Klebsiella pneumoniae; 2 µg/mL (≈ 7.13 µM) in the data set on Staphylococcus aureus [8]; above 64 µg/mL in the data set on Pseudomonas aeruginosa. Moreover, the “Selectivity Index” value in the data set with Staphylococcus aureus [2] and in the data set with Staphylococcus aureus [4] was 4 each time. The MBC with Staphylococcus aureus [3] and in the data set on Staphylococcus aureus [9] was 8 µg/mL (≈ 28.5 µM) each time. For the same compound, the viability at 24 h came to 76% in data set [5] and 75% in data set [7].

What is called MIC is the least concentration at which growth counts as inhibited. As usually defined, the MBC is the smallest concentration meeting the test's criterion for killing.

The values above are taken from ChEMBL document CHEMBL5634137, “2,4-Diacetylphloroglucinol (DAPG) derivatives rapidly eradicate methicillin-resistant staphylococcus aureus without resistance development by disrupting membrane” (Eur J Med Chem, 2023).
